Assay results from PubChem BioAssay AID2060492 (Molecular Pharmacology Branch, DTP, NCI, 2025).

Test system: 695427-040-R-J1-PDC complex spheroids, viability percent T/C
Assay: Anticancer human tumor 695427-040-R-J1-PDC patient-derived colon adenocarcinoma cell line growth inhibition [GQUAD]
Conditions: for IC50: curve of first compound; for viability, T/C: stronger effect = lower value
Outline: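 Viability of tumor cells grown as complex spheroids with endothelial and stromal cells, exposed to drug combinations. Top concentration at or near clinical Cmax (else 10 microM), diluted in half-log increments.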

[1] = second compound 0.0316 µM, first compound 0.0316 µM
[2] = second compound 0.0316 µM, first compound 0.1 µM
[3] = second compound 0.0316 µM, first compound 0.316 µM
[4] = second compound 0.0316 µM, first compound 1 µM
[5] = second compound 0.0316 µM, first compound 3.16 µM
[6] = second compound 0.0316 µM, first compound 10 µM
[7] = second compound 0.1 µM, first compound 0.0316 µM
[8] = second compound 0.1 µM, first compound 0.1 µM
[9] = second compound 0.1 µM, first compound 0.316 µM
[10] = second compound 0.1 µM, first compound 1 µM
[11] = second compound 0.1 µM, first compound 3.16 µM
[12] = second compound 0.1 µM, first compound 10 µM
[13] = second compound 0.316 µM, first compound 0.0316 µM
[14] = second compound 0.316 µM, first compound 0.1 µM
[15] = second compound 0.316 µM, first compound 0.316 µM
[16] = second compound 0.316 µM, first compound 1 µM
[17] = second compound 0.316 µM, first compound 3.16 µM
[18] = second compound 0.316 µM, first compound 10 µM
[19] = second compound 1 µM, first compound 0.0316 µM
[20] = second compound 1 µM, first compound 0.1 µM
[21] = second compound 1 µM, first compound 0.316 µM
[22] = second compound 1 µM, first compound 1 µM
[23] = second compound 1 µM, first compound 3.16 µM
[24] = second compound 1 µM, first compound 10 µM
[25] = second compound 3.16 µM, first compound 0.0316 µM
[26] = second compound 3.16 µM, first compound 0.1 µM
[27] = second compound 3.16 µM, first compound 0.316 µM
[28] = second compound 3.16 µM, first compound 1 µM
[29] = second compound 3.16 µM, first compound 3.16 µM
[30] = second compound 3.16 µM, first compound 10 µM
[31] = second compound 10 µM, first compound 0.0316 µM
[32] = second compound 10 µM, first compound 0.1 µM
[33] = second compound 10 µM, first compound 0.316 µM
[34] = second compound 10 µM, first compound 1 µM
[35] = second compound 10 µM, first compound 3.16 µM
[36] = second compound 10 µM, first compound 10 µM
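Further: spheroids exposed to compounds for seven days before readout.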

In the case of CC(=O)O[C@H]1C(=O)[C@@]2(C)[C@H]([C@H](OC(=O)c3ccccc3)[C@]3(O)C[C@H](OC(=O)[C@H](O)[C@@H](NC(=O)c4ccccc4)c4ccccc4)C(C)=C1C3(C)C)[C@]1(OC(C)=O)CO[C@@H]1C[C@@H]2O + Cc1cnc(CNC(=O)c2c(=O)c3ccc(N4CCCN(C)CC4)nc3n3c2sc2ccccc23)cn1, the IC50 (second compound 0.0316 µM) is reported as > 10 µM, the IC50 (second compound 0.1 µM) is reported as > 10 µM and the IC50 (second compound 0.316 µM) is reported as > 10 µM. The IC50 (second compound 1 µM) was > 10 µM, the IC50 (second compound 3.16 µM) was < 0.0316 µM and the IC50 (second compound 10 µM) was < 0.0316 µM. The viability, T/C [1] was 102%, the viability, T/C [2] was 84.2% and the viability, T/C [3] was 85.5%. The viability, T/C [4] was 63.7%, the viability, T/C [5] was 65% and the viability, T/C [6] was 54.4%. The viability, T/C [7] was 90.5%, the viability, T/C [8] was 82.6% and the viability, T/C [9] was 91.5%. For the same compound, the viability, T/C [10] was 57.8%, the viability, T/C [11] was 71.8% and the viability, T/C [12] was 66.2%. It also gave a viability, T/C [13] of 80.4%, a viability, T/C [14] of 76.3% and a viability, T/C [15] of 62.3%. The viability, T/C [16] was 62%, the viability, T/C [17] was 65.7% and the viability, T/C [18] was 71.3%. It also gave a viability, T/C [19] of 65.3%, a viability, T/C [20] of 67.5% and a viability, T/C [21] of 65.9%. For the same compound, the viability, T/C [22] was 51.3%, the viability, T/C [23] was 76.5% and the viability, T/C [24] was 59.5%. It also gave a viability, T/C [25] of 40.7%, a viability, T/C [26] of 43.6% and a viability, T/C [27] of 56.9%. The viability, T/C [28] was 44.3%, the viability, T/C [29] was 60.4% and the viability, T/C [30] was 58%. For the same compound, the viability, T/C [31] was 30.6%, the viability, T/C [32] was 30% and the viability, T/C [33] was 43.5%. For the same compound, the viability, T/C [34] was 43.6%, the viability, T/C [35] was 44.2% and the viability, T/C [36] was 24.8%.
CC[C@@]1(O)C(=O)OCc2c1cc1n(c2=O)Cc2cc3c(CN(C)C)c(O)ccc3nc2-1 + Cc1cnc(CNC(=O)c2c(=O)c3ccc(N4CCCN(C)CC4)nc3n3c2sc2ccccc23)cn1 was tested, and the IC50 (second compound 0.0316 µM) was > 0.316 µM, the IC50 (second compound 0.1 µM) was > 0.316 µM and the IC50 (second compound 0.316 µM) was > 0.316 µM. The IC50 (second compound 1 µM) was > 0.316 µM, the IC50 (second compound 3.16 µM) was < 0.000999 µM and the IC50 (second compound 10 µM) was < 0.000999 µM. It also gave a viability, T/C (second compound 0.0316 µM, first compound 0.000999 µM) of 92.5%, a viability, T/C (second compound 0.0316 µM, first compound 0.00316 µM) of 82.5% and a viability, T/C (second compound 0.0316 µM, first compound 0.00999 µM) of 89.7%. It also gave a viability, T/C [1] of 76%, a viability, T/C (second compound 0.0316 µM, first compound 0.0999 µM) of 82.8% and a viability, T/C [3] of 79.2%. The viability, T/C (second compound 0.1 µM, first compound 0.000999 µM) was 95.5%, the viability, T/C (second compound 0.1 µM, first compound 0.00316 µM) was 74.4% and the viability, T/C (second compound 0.1 µM, first compound 0.00999 µM) was 90.8%. The viability, T/C [7] was 67.7%, the viability, T/C (second compound 0.1 µM, first compound 0.0999 µM) was 91.6% and the viability, T/C [9] was 77.5%. It also gave a viability, T/C (second compound 0.316 µM, first compound 0.000999 µM) of 73.2%, a viability, T/C (second compound 0.316 µM, first compound 0.00316 µM) of 66.6% and a viability, T/C (second compound 0.316 µM, first compound 0.00999 µM) of 69%. The viability, T/C [13] was 61.1%, the viability, T/C (second compound 0.316 µM, first compound 0.0999 µM) was 80.5% and the viability, T/C [15] was 65.6%. For the same compound, the viability, T/C (second compound 1 µM, first compound 0.000999 µM) was 56.4%, the viability, T/C (second compound 1 µM, first compound 0.00316 µM) was 69.8% and the viability, T/C (second compound 1 µM, first compound 0.00999 µM) was 58.3%. For the same compound, the viability, T/C [19] was 65.7%, the viability, T/C (second compound 1 µM, first compound 0.0999 µM) was 70.9% and the viability, T/C [21] was 63.8%. The viability, T/C (second compound 3.16 µM, first compound 0.000999 µM) was 45.8%, the viability, T/C (second compound 3.16 µM, first compound 0.00316 µM) was 56.8% and the viability, T/C (second compound 3.16 µM, first compound 0.00999 µM) was 54.8%. The viability, T/C [25] was 53.5%, the viability, T/C (second compound 3.16 µM, first compound 0.0999 µM) was 65.7% and the viability, T/C [27] was 48.4%. For the same compound, the viability, T/C (second compound 10 µM, first compound 0.000999 µM) was 28.6%, the viability, T/C (second compound 10 µM, first compound 0.00316 µM) was 51.3% and the viability, T/C (second compound 10 µM, first compound 0.00999 µM) was 54%. For the same compound, the viability, T/C [31] was 49.4%, the viability, T/C (second compound 10 µM, first compound 0.0999 µM) was 48.8% and the viability, T/C [33] was 40.2%.
For COc1cc(C2c3cc4c(cc3C(OC3OC5COC(C)OC5C(O)C3O)C3COC(=O)C23)OCO4)cc(OC)c1O (stereo unspecified) + Cc1cnc(CNC(=O)c2c(=O)c3ccc(N4CCCN(C)CC4)nc3n3c2sc2ccccc23)cn1, the IC50 (second compound 0.0316 µM) was > 10 µM, the IC50 (second compound 0.1 µM) was > 10 µM and the IC50 (second compound 0.316 µM) was > 10 µM. The IC50 (second compound 1 µM) was > 10 µM, the IC50 (second compound 3.16 µM) was < 0.0316 µM and the IC50 (second compound 10 µM) was < 0.0316 µM. The viability, T/C [1] was 87.3%, the viability, T/C [2] was 94.9% and the viability, T/C [3] was 92.7%. For the same compound, the viability, T/C [4] was 54.4%, the viability, T/C [5] was 64.1% and the viability, T/C [6] was 60.3%. For the same compound, the viability, T/C [7] was 84.8%, the viability, T/C [8] was 79.2% and the viability, T/C [9] was 70.3%. For the same compound, the viability, T/C [10] was 62.9%, the viability, T/C [11] was 75.5% and the viability, T/C [12] was 65.2%. It also gave a viability, T/C [13] of 71.3%, a viability, T/C [14] of 79.2% and a viability, T/C [15] of 70.5%. The viability, T/C [16] was 63%, the viability, T/C [17] was 73% and the viability, T/C [18] was 69.7%. For the same compound, the viability, T/C [19] was 47.5%, the viability, T/C [20] was 74.7% and the viability, T/C [21] was 71.3%. It also gave a viability, T/C [22] of 59.8%, a viability, T/C [23] of 70% and a viability, T/C [24] of 55.7%. It also gave a viability, T/C [25] of 33.4%, a viability, T/C [26] of 50.7% and a viability, T/C [27] of 46.3%. The viability, T/C [28] was 50%, the viability, T/C [29] was 50.9% and the viability, T/C [30] was 45.7%. It also gave a viability, T/C [31] of 38.8%, a viability, T/C [32] of 34.7% and a viability, T/C [33] of 41.8%. For the same compound, the viability, T/C [34] was 45.4%, the viability, T/C [35] was 56% and the viability, T/C [36] was 36.7%.
